# Key:
# Format in all cases: functional
# A498 [1] = experiment: Growth inhibition of human A498 cells assessed as cell growth at 5X10'-6 M after 48 hrs by sulforhodamine B assay; settings: A498, 48 h, read-out: Activity
# M14 = experiment: Growth inhibition of human M14 cells assessed as cell growth at 5X10'-5 M after 48 hrs by sulforhodamine B assay; settings: M14, 48 h, read-out: Activity
# [2] = Growth inhibition of human Hs 578T cells assessed as cell growth at 5X10'-5 M after 48 hrs by sulforhodamine B assay; settings: read-out: Activity
# HOP-92 [3] = experiment: Growth inhibition of human HOP92 cells assessed as cell growth at 5X10'-8 M after 48 hrs by sulforhodamine B assay; settings: HOP-92, 48 h, read-out: Activity
# NCI-H522 = experiment: Growth inhibition of human NCI-H522 cells assessed as cell growth at 5X10'-9 M after 48 hrs by sulforhodamine B assay; settings: NCI-H522, 48 h, read-out: Activity
# HOP-92 [4] = experiment: Growth inhibition of human HOP92 cells assessed as cell growth at 5X10'-5 M after 48 hrs by sulforhodamine B assay; settings: HOP-92, 48 h, read-out: Activity
# ACHN = experiment: Growth inhibition of human ACHN cells assessed as cell growth at 5X10'-9 M after 48 hrs by sulforhodamine B assay; settings: read-out: Activity
# BT-549 = experiment: Growth inhibition of human BT549 cells assessed as cell growth at 5X10'-7 M after 48 hrs by sulforhodamine B assay; settings: BT-549, 48 h, read-out: Activity
# K562 [5] = experiment: Growth inhibition of human K562 cells assessed as cell growth at 5X10'-9 M after 48 hrs by sulforhodamine B assay; settings: K562, 48 h, read-out: Activity
# OVCAR-5 [6] = experiment: Growth inhibition of human OVCAR5 cells assessed as cell growth at 5X10'-8 M after 48 hrs by sulforhodamine B assay; settings: OVCAR-5, 48 h, read-out: Activity
# A498 [7] = experiment: Growth inhibition of human A498 cells assessed as cell growth at 5X10'-8 M after 48 hrs by sulforhodamine B assay; settings: A498, 48 h, read-out: Activity
# NCI-H322M [8] = experiment: Growth inhibition of human NCI-H322M cells assessed as cell growth at 5X10'-6 M after 48 hrs by sulforhodamine B assay; settings: read-out: Activity
# HOP-62 = experiment: Growth inhibition of human HOP62 cells assessed as cell growth at 5X10'-6 M after 48 hrs by sulforhodamine B assay; settings: HOP-62, 48 h, read-out: Activity
# HCT-116 = experiment: Growth inhibition of human HCT116 cells assessed as cell growth at 5X10'-6 M after 48 hrs by sulforhodamine B assay; settings: HCT-116, 48 h, read-out: Activity
# SK-OV-3 = experiment: Growth inhibition of human SKOV3 cells assessed as cell growth at 5X10'-8 M after 48 hrs by sulforhodamine B assay; settings: SK-OV-3, 48 h, read-out: Activity
# UACC-62 = experiment: Growth inhibition of human UACC62 cells assessed as cell growth at 5X10'-6 M after 48 hrs by sulforhodamine B assay; settings: UACC-62, 48 h, read-out: Activity
# UO-31 = experiment: Growth inhibition of human UO31 cells assessed as cell growth at 5X10'-7 M after 48 hrs by sulforhodamine B assay; settings: UO-31, 48 h, read-out: Activity
# SK-MEL-5 = experiment: Growth inhibition of human SK-MEL-5 cells assessed as cell growth at 5X10'-8 M after 48 hrs by sulforhodamine B assay; settings: SK-MEL-5, 48 h, read-out: Activity
# NCI-H322M [9] = experiment: Growth inhibition of human NCI-H322M cells assessed as cell growth at 5X10'-5 M after 48 hrs by sulforhodamine B assay; settings: read-out: Activity
# SF-539 = experiment: Growth inhibition of human SF539 cells assessed as cell growth at 5X10'-7 M after 48 hrs by sulforhodamine B assay; settings: SF-539, 48 h, read-out: Activity
# [10] = Growth inhibition of human Hs 578T cells assessed as cell growth at 5X10'-8 M after 48 hrs by sulforhodamine B assay; settings: read-out: Activity
# K562 [11] = experiment: Growth inhibition of human K562 cells assessed as cell growth at 5X10'-6 M after 48 hrs by sulforhodamine B assay; settings: K562, 48 h, read-out: Activity
# SF-295 = experiment: Growth inhibition of human SF295 cells assessed as cell growth at 5X10'-8 M after 48 hrs by sulforhodamine B assay; settings: SF-295, 48 h, read-out: Activity
# PC-3 = experiment: Growth inhibition of human PC3 cells assessed as cell growth at 5X10'-9 M after 48 hrs by sulforhodamine B assay; settings: PC-3, 48 h, read-out: Activity
# U-251 = experiment: Growth inhibition of human U251 cells assessed as cell growth at 5X10'-6 M after 48 hrs by sulforhodamine B assay; settings: U-251, 48 h, read-out: Activity
# OVCAR-5 [12] = experiment: Growth inhibition of human OVCAR5 cells assessed as cell growth at 5X10'-7 M after 48 hrs by sulforhodamine B assay; settings: OVCAR-5, 48 h, read-out: Activity
# KM12 = experiment: Growth inhibition of human KM12 cells assessed as cell growth at 5X10'-6 M after 48 hrs by sulforhodamine B assay; settings: KM12, 48 h, read-out: Activity
# OVCAR-3 = experiment: Growth inhibition of human OVCAR3 cells assessed as cell growth at 5X10'-7 M after 48 hrs by sulforhodamine B assay; settings: OVCAR-3, 48 h, read-out: Activity
# HL-60(TB) [13] = experiment: Growth inhibition of human HL-60(TB) cells assessed as cell growth at 5X10'-7 M after 48 hrs by sulforhodamine B assay; settings: HL-60, 48 h, read-out: Activity
# SR = experiment: Growth inhibition of human SR cells assessed as cell growth at 5X10'-8 M after 48 hrs by sulforhodamine B assay; settings: read-out: Activity
# HOP-92 [14] = experiment: Growth inhibition of human HOP92 cells assessed as cell growth at 5X10'-7 M after 48 hrs by sulforhodamine B assay; settings: HOP-92, 48 h, read-out: Activity
# IGROV-1 = experiment: Growth inhibition of human IGROV1 cells assessed as cell growth at 5X10'-5 M after 48 hrs by sulforhodamine B assay; settings: IGROV-1, 48 h, read-out: Activity
# NCI-H23 = experiment: Growth inhibition of human NCI-H23 cells assessed as cell growth at 5X10'-8 M after 48 hrs by sulforhodamine B assay; settings: NCI-H23, 48 h, read-out: Activity
# T47D = experiment: Growth inhibition of human T47D cells assessed as cell growth at 5X10'-6 M after 48 hrs by sulforhodamine B assay; settings: read-out: Activity
# HL-60(TB) [15] = experiment: Growth inhibition of human HL-60(TB) cells assessed as cell growth at 5X10'-8 M after 48 hrs by sulforhodamine B assay; settings: HL-60, 48 h, read-out: Activity
# OVCAR-5 [16] = experiment: Growth inhibition of human OVCAR5 cells assessed as cell growth at 5X10'-6 M after 48 hrs by sulforhodamine B assay; settings: OVCAR-5, 48 h, read-out: Activity
# NCI-H226 = experiment: Growth inhibition of human NCI-H226 cells assessed as cell growth at 5X10'-8 M after 48 hrs by sulforhodamine B assay; settings: NCI-H226, 48 h, read-out: Activity
structure (smiles),measurement,setting,value
COc1cc(-c2nn(-c3cccc(NC(=O)Nc4cccc(C(F)(F)F)c4)c3)cc2-c2ccncc2)ccc1Cl,growth at 5 µM,A498 [1],-7%
same,growth at 50 µM,M14,-64%
same,growth at 50 µM,[2],-6%
same,growth at 0.05 µM,HOP-92 [3],90%
same,growth at 0.005 µM,NCI-H522,95%
same,growth at 50 µM,HOP-92 [4],-45%
same,growth at 0.005 µM,ACHN,104%
same,growth at 0.5 µM,BT-549,91%
same,growth at 0.005 µM,K562 [5],99%
same,growth at 0.05 µM,OVCAR-5 [6],86%
same,growth at 0.05 µM,A498 [7],87%
same,growth at 5 µM,NCI-H322M [8],-2%
same,growth at 5 µM,HOP-62,-9%
same,growth at 5 µM,HCT-116,3%
same,growth at 0.05 µM,SK-OV-3,99%
same,growth at 5 µM,UACC-62,-73%
same,growth at 0.5 µM,UO-31,61%
same,growth at 0.05 µM,SK-MEL-5,95%
same,growth at 50 µM,NCI-H322M [9],-14%
same,growth at 0.5 µM,SF-539,79%
same,growth at 0.05 µM,[10],96%
same,growth at 5 µM,K562 [11],3%
same,growth at 0.05 µM,SF-295,91%
same,growth at 0.005 µM,PC-3,92%
same,growth at 5 µM,U-251,-86%
same,growth at 0.5 µM,OVCAR-5 [12],80%
same,growth at 5 µM,KM12,-37%
same,growth at 0.5 µM,OVCAR-3,56%
same,growth at 0.5 µM,HL-60(TB) [13],85%
same,growth at 0.05 µM,SR,93%
same,growth at 0.5 µM,HOP-92 [14],55%
same,growth at 50 µM,IGROV-1,-43%
same,growth at 0.05 µM,NCI-H23,95%
same,growth at 5 µM,T47D,18%
same,growth at 0.05 µM,HL-60(TB) [15],94%
same,growth at 5 µM,OVCAR-5 [16],5%
same,growth at 0.05 µM,NCI-H226,96%
COc1cc(-c2nn(-c3cccc(NC(=O)Nc4cc(C(F)(F)F)cc(C(F)(F)F)c4)c3)cc2-c2ccncc2)ccc1Cl,growth at 5 µM,A498 [1],-43%
same,growth at 50 µM,M14,-28%
same,growth at 50 µM,[2],-10%
same,growth at 0.05 µM,HOP-92 [3],67%
same,growth at 0.005 µM,NCI-H522,102%
same,growth at 50 µM,HOP-92 [4],-72%
same,growth at 0.005 µM,ACHN,104%
same,growth at 0.5 µM,BT-549,98%
same,growth at 0.005 µM,K562 [5],99%
same,growth at 0.05 µM,OVCAR-5 [6],87%
same,growth at 0.05 µM,A498 [7],82%
same,growth at 5 µM,NCI-H322M [8],-24%
same,growth at 5 µM,HOP-62,-92%
same,growth at 5 µM,HCT-116,-52%
same,growth at 0.05 µM,SK-OV-3,103%
same,growth at 5 µM,UACC-62,-66%
same,growth at 0.5 µM,UO-31,62%
same,growth at 0.05 µM,SK-MEL-5,95%
same,growth at 50 µM,NCI-H322M [9],-58%
same,growth at 0.5 µM,SF-539,85%
same,growth at 0.05 µM,[10],93%
same,growth at 5 µM,K562 [11],-10%
same,growth at 0.05 µM,SF-295,94%
same,growth at 0.005 µM,PC-3,92%
same,growth at 5 µM,U-251,-77%
same,growth at 0.5 µM,OVCAR-5 [12],82%
same,growth at 5 µM,KM12,-71%
same,growth at 0.5 µM,OVCAR-3,45%
same,growth at 0.5 µM,HL-60(TB) [13],75%
same,growth at 0.05 µM,SR,103%
same,growth at 0.5 µM,HOP-92 [14],30%
same,growth at 50 µM,IGROV-1,-54%
same,growth at 0.05 µM,NCI-H23,100%
same,growth at 5 µM,T47D,10%
same,growth at 0.05 µM,HL-60(TB) [15],98%
same,growth at 5 µM,OVCAR-5 [16],-36%
same,growth at 0.05 µM,NCI-H226,90%

# Source: ChEMBL document CHEMBL2440076, “New triarylpyrazoles as broad-spectrum anticancer agents: design, synthesis, and biological evaluation” (Eur J Med Chem, 2013)
